Experimental data as given in patent US6664231B1, “Anti-fungal peptides” (priority 1993, dated 2003).

How the values were obtained:
[1] = system: C. albicans designated CA-1, Strain SLU-1; conditions: designated CA-1, Strain SLU-1, 18 h
Experimental: In each broth assay screening procedure, a colony of C. albicans designated CA-1, Strain SLU-1 that was received from the laboratories of G. Matuschak and A. Lechner, St. Louis University Hospital, St. Louis, Mo., where the strain was maintained, was inoculated into a tube containing 5 mL Sabouraud Dextrose broth (2% dextrose, 1% neopeptone) and incubated overnight at 37° C. with shaking. The overnight culture was diluted 1:50 into 5 mL of fresh broth and incubated for 3 hours at 37° C. Organisms were pelleted by centrifugation in a Beckman J-6M centrifuge for 5 minutes at 3000 rpm (1500×g) and the pellets were resuspended in 5 mL phosphate buffered saline (PBS) and the optical density at 570 nm was determined. On the basis of the determination that one OD unit equals 3×10^7 colony forming units/mL, yeast cells were diluted to 2×10^6 cells/mL in Sabouraud Dextrose broth.
Domain III peptides derived from or based on BPI to be screened were originally constituted in Dulbecco's-PBS, were diluted to 100 μg/mL in broth and were serially diluted 2-fold into wells of a 96 well sterile, flat bottom, non-pyrogenic tissue culture plate (Costar, Cambridge, Mass.). All assays were performed in triplicate. 2×10^5 organisms were added at 100 μl per well; final volume was 200 μL/well; the plate was incubated on a shaker at 37° C. for 18 hours; and the optical densities for each well were read at 590 nm. […] The broth assay data may be set out in terms of minimum inhibitory concentration (MIC), i.e. the lowest concentration required to reduce the optical density at 590 nm to below 0.1.

[2] = system: polyene-resistant (ATCC 38247), 5-fluorocytosine-resistant (ATCC 44373), azole-resistant (ATCC 62342), ketoconazole-resistant (ATCC 64124) C. albicans; assay: Fungicidal activity on commercially-available drug-resistant Candida strains; assay type: cell-based, Candida albicans; conditions: ATCC 38247, 44373, 62342, 64124
Experimental: Further experiments were performed to determine the anti-fungal activity of Domain III derived peptides on commercially-available strains of Candida considered resistant to other anti-fungal agents: polyene-resistant C. albicans (ATCC Accession No. 38247), 5-fluorocytosine-resistant C. albicans (ATCC No. 44373), azole-resistant C. albicans (ATCC No. 62342), and ketoconazole-resistant C. albicans (ATCC No. 64124).

[3] = assay type: physicochemical
Experimental: XMP.284 was soluble in water and unbuffered saline. XMP.284 was also soluble in 10 mM sodium phosphate, 150 mM sodium chloride pH 7. […] There was very little product loss, as measured by absorbance at 280 nm, in 0.15 M saline buffered with 10 mM acetate at pH 4, 5 or 6. […] Presently preferred is a formulation that includes 10 mM sodium acetate, 150 mM sodium chloride, pH 5.

[4] = assay type: physicochemical; conditions: 37° C., at 50 days, acetate buffered saline
Experimental: The lyophilized peptide was dissolved to a concentration of 1 mg/mL in three different buffers. The three formulation buffers used were (a) 10 mM solution acetate, 150 mM sodium chloride pH 4, (b) 10 mM sodium acetate, 150 mM sodium chloride pH 5 and (c) 10 mM sodium acetate, 150 mM sodium chloride pH 6. The formulated peptide samples were incubated at 4° C. and 37C. At each time point, samples were withdrawn from each vial and assayed by C18 reverse phase BPLC, absorbance at 280 nm, and SDS-PAGE. The study was conducted for 50 days.
A 0.46×25 cm Vydac C18 column (cat no. 218TP54) was used on a Shimadzu HPLC system. The column was run in binary gradient mobile phases: A=Water+0.05% TFA, B=acetonitrile+0.05% TFA. […]
Samples were analyzed by SDS polyacrylamide gel electrophoresis, run on Novex 10-20% tricine precast gels (Novex, La Jolla, Calif., EC6625). […] In addition, samples were analyzed photometrically. For this, samples withdrawn at each time point were diluted 6-fold with Millipore water and absorbance was measured at 280 nm and scanning from 210 nm to 340 nm using a Shimadzu UV 160 spectrophotometer. AU samples were filtered prior to absorbance measurement(s).
XMP.284 was soluble in water and unbuffered saline. […] There was very little product loss, as measured by absorbance at 280 nm, in 0.15 M saline buffered with 10 mM acetate at pH 4, 5 or 6. […]

[5] = system: Candida glabrata; assay type: cell-based
Experimental: (§1) In additional experiments, a fluorescence-activated cell sorter (FACS) based assay was developed to test the fungicidal activity of the peptides. […] Difco) agar. Several colonies were picked from the agar plate and inoculated into 5 mL of Sabouraud's Dextrose media in a sterile 10 mL polypropylene tube. The fungal cultures were incubated for about 18 hours at 30° C. […] The culture were centrifuged at 3000 rpm for 5 minutes (Sorvall RT 6000B). After centrifugation, the supernatant was decanted leaving the fungal pellets in the centrifuge tubes. The pellets were resuspended in 15 mL of SDB. Both suspensions were combined into one tube and mixed to generate a stock culture. […] After determining the concentration of the stock, appropriate dilutions were made with Sabouraud's Dextrose media to obtain 100 mL of 1×10^6 cell/mL. […] After the 1 hour incubation, all the tubes were centrifuged at 3000 rpm for 5 minutes. […] Louis, Mo.) in Dulbecco's PBS (DPBS, GIBCO, Grand Island, N.Y.) except the autofluorescence control, which was resuspended in DPBS alone. The tubes were mixed and incubated in the dark at room temperature for at least 20 minutes. […] The settings were adjusted appropriately to the following approximate parameters: Cells were analyzed (10,000 cells/tube) and their respective fluorescence determined. […] The population of dead (i.e., propidium iodide stained) fungal cells was determined by a fluorescence threshold between the negative control and positive control.

[6] = system: Candida lusitaniae; assay type: cell-based
Experimental: as §1

[7] = system: Candida parasilosis; assay type: cell-based
Experimental: as §1

Substance	minimum inhibitory concentration (MIC), lowest concentration required to reduce the optical density at 590 nm to below 0.1 [1]	Fungicidal activity on resistant strains [2]	solubility in the phosphate buffer on heating [3]	solubility in water and unbuffered saline [3]	new HPLC peaks accumulated [4]	Candida glabrata IC50 [5]	Candida lusitaniae IC50 [6]	Candida parasilosis IC50 [7]
H-KSKVGWLIQLFHKK-NH2 [XMP.13]	12.5 µg/mL	not reduced	–	–	–	–	–	–
H-SKVKWLIQLFHKK-NH2 [XMP.284]	–	–	remained soluble	soluble	less than 0.5%	6.27 µg/mL	1.20 µg/mL	1.82 µg/mL
